Reference: patent US20240150377A1, “MODULATORS OF CYSTIC FIBROSIS TRANSMEMBRANE CONDUCTANCE REGULATOR” (VERTEX PHARMACEUTICALS INCORPORATED, priority 2020, published 2024)

Target: T1, CFTR (Homo sapiens, UniProt P13569, DEL508-508)
T1 construct: endogenous in cells; host or cells: primary human bronchial epithelial cells from CF subjects (F508del/MF-HBE), differentiated at air-liquid interface
Test: HBE2 assay: Ussing chamber assay of CFTR-mediated short-circuit currents
Format: cell-based
Conditions: 3 μM corrector; F508del/MF-HBE cells; with 44 nM potentiator, 18-24 hours, 20% human serum
Experimental: Ussing Chamber Assay of CFTR-Mediated Short-Circuit Currents
After four days the apical media was removed, and the cells were grown at an air liquid interface for >14 days prior to use.
To isolate the CFTR-mediated short-circuit (ISC) current, F508del/MF-HBE grown on Costar® Snapwell™ cell culture inserts were mounted in an Ussing chamber and the transepithelial ISC was measured under voltage-clamp recording conditions (Vhold=0 mV) at 37° C. […] The CFTR-mediated ISC (μA/cm^2) for each condition was determined from the peak forskolin response to the steady-state current following inhibition.
Identification of Corrector Compounds
The activity of the CFTR corrector compounds on the CFTR-mediated ISC was determined in Ussing chamber studies as described above.

T1 sequence (P13569 with tags, fused parts or gaps DEL508-508): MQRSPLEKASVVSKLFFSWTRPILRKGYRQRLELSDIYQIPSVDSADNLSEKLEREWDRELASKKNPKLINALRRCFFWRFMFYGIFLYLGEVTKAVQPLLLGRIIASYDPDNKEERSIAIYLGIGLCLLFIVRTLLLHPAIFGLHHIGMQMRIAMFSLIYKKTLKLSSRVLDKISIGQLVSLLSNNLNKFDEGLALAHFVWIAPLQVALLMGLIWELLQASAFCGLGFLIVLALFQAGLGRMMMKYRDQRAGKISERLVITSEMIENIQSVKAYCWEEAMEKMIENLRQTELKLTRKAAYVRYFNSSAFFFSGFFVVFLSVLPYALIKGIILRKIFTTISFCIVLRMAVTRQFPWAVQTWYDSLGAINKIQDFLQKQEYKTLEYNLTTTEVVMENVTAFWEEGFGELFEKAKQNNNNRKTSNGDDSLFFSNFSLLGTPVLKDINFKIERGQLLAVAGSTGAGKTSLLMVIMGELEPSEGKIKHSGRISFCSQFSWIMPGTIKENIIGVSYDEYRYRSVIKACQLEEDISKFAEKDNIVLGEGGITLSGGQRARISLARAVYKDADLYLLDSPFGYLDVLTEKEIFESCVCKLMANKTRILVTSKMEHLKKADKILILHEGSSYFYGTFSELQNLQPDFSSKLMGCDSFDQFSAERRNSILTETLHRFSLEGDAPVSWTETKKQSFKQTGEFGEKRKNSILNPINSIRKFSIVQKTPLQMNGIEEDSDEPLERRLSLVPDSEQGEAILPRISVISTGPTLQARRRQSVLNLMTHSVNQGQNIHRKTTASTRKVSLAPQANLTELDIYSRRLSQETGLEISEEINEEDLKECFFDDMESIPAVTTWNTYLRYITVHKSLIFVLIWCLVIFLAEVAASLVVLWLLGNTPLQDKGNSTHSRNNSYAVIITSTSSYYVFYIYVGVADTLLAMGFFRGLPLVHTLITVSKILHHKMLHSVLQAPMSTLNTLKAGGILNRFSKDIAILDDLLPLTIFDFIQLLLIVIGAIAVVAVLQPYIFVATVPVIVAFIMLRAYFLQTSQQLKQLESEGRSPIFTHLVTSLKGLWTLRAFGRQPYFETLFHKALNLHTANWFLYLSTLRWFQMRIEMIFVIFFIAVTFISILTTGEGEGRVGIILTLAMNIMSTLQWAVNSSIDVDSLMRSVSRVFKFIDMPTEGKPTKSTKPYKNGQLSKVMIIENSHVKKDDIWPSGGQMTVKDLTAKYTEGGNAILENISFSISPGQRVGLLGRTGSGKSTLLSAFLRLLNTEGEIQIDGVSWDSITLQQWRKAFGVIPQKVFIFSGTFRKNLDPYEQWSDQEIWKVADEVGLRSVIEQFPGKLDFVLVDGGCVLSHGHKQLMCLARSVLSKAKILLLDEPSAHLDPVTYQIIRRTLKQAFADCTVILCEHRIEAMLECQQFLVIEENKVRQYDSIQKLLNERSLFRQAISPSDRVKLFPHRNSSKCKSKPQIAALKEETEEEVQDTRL

SMILES | HBE2 Activity at 3 μM (%)
Cc1cccc(C)c1-c1cc2nc(n1)NS(=O)(=O)c1cccc(c1)C(=O)N(Cc1cncc(N(C)CC(C)C)n1)[C@H](CC(C)C)CO2 [Compound 1713] | +++ (+++ is >60+)
Cc1cccc(C)c1-c1cc2nc(n1)NS(=O)(=O)c1cccc(c1)C(=O)N(Cc1cncc(N3CCCC3C)n1)[C@H](C1CC(C)(C)C1)CO2 (single isomer, unassigned) [Compound 1337] | ++ (++ is 30-60%)
CCC(C)(C)C[C@@H]1COc2cc(-c3c(C)cccc3C)nc(n2)NS(=O)(=O)c2cccc(c2)C(=O)N1Cc1cncc(N(C)C2CCC2)n1 [Compound 1329, 12-[[6-[cyclobutyl(methyl)amino]pyrazin-2-yl]methyl]-11-(2,2-dimethylbutyl)-6-(2,6-dimethylphenyl)-2,2-dioxo-9-oxa-2λ^6-thia-3,5,12,19-tetrazatricyclo[12.3.1.14,8]nonadeca-1(18),4,6,8(19),14,16-hexaen-13-one] | ++ (++ is 30-60%)
CCC(C)(C)C[C@@H]1COc2cc(-c3c(C)cccc3C)nc(n2)NS(=O)(=O)c2cccc(c2)C(=O)N1Cc1cncc(N(C)C2CCC2)n1 (single isomer, unassigned) [Compound 1330, 12-[[6-[cyclobutyl(methyl)amino]pyrazin-2-yl]methyl]-11-(2,2-dimethylbutyl)-6-(2,6-dimethylphenyl)-2,2-dioxo-9-oxa-2λ^6-thia-3,5,12,19-tetrazatricyclo[12.3.1.14,8]nonadeca-1(18),4,6,8(19),14,16-hexaen-13-one] | +++ (+++ is >60+)

The remaining lines, values ahead:

HBE2 Activity at 3 μM (%) | SMILES
+++ (+++ is >60+) | Cc1cccc(C)c1-c1cc2nc(n1)NS(=O)(=O)c1cccc(c1)C(=O)N(Cc1cncc(N3C[C@H]4CCCC[C@H]43)n1)[C@H](CC(C)(C)C)CO2 [Compound 1800]
+++ (+++ is >60+) | CO[C@@H](C)[C@@H]1CCCN1c1cncc(CN2C(=O)c3cccc(c3)S(=O)(=O)Nc3nc(cc(-c4c(C)cccc4C)n3)OC[C@H]2CCC(C)(C)C)n1 [Compound 1936]
+++ (+++ is >60+) | Cc1cccc(C)c1-c1cc2nc(n1)NS(=O)(=O)c1cccc(c1)C(=O)N(Cc1cccc(N3CCC[C@H]3C(C)C)n1)[C@H](CC1(C)CCC1)CO2 [Compound 1776]
+++ (+++ is >60+) | Cc1cccc(C)c1-c1cc2nc(n1)NS(=O)(=O)c1cccc(c1)C(=O)N(Cc1cncc(N3CCCC[C@H]3C)n1)[C@H](CC1CC(C)(C)C1)CO2 [Compound 1901]
+++ (+++ is >60+) | Cc1cccc(C)c1-c1cc2nc(n1)NS(=O)(=O)c1cccc(c1)C(=O)N(Cc1cncc(N3CCCC4CCC43)n1)[C@H](CCC(C)(C)C)CO2 (stereo in doubt) [Compound 1781]
+++ (+++ is >60+) | Cc1cccc(C)c1-c1cc2nc(n1)NS(=O)(=O)c1cccc(c1)C(=O)N(Cc1cncc(N(C)C3CCCC3)n1)[C@H](COC(C)C)CO2 [Compound 1948]
+++ (+++ is >60+) | CCN(c1cncc(CN2C(=O)c3cccc(c3)S(=O)(=O)Nc3nc(cc(-c4c(C)cccc4C)n3)OC[C@H]2CCC(C)C)n1)C1CCC1 [Compound 1764]
+++ (+++ is >60+) | COC[C@H]1CCCCN1c1cncc(CN2C(=O)c3cccc(c3)S(=O)(=O)Nc3nc(cc(-c4c(C)cccc4C)n3)OC[C@H]2CCC(C)(C)C)n1 (stereo in doubt) [Compound 1856]
+++ (+++ is >60+) | Cc1cccc(C)c1-c1cc2nc(n1)NS(=O)(=O)c1cccc(c1)C(=O)N(Cc1cncc(N3CC4(CCC4)[C@H]3C(C)C)n1)[C@H](CC(C)(C)C)CO2 [Compound 1752]
+++ (+++ is >60+) | Cc1cccc(C)c1-c1cc2nc(n1)NS(=O)(=O)c1cccc(c1)C(=O)N(Cc1cncc(N(C)CC3(C)CC3)n1)[C@H](CC(C)(C)C)CO2 [Compound 1757]
+++ (+++ is >60+) | Cc1cccc(C)c1-c1cc2nc(n1)NS(=O)(=O)c1cccc(c1)C(=O)N(Cc1cnc3cc(C(C)C)n(C)c3n1)[C@H](COC1CC1)CO2 [Compound 1889]
+++ (+++ is >60+) | Cc1cccc(C)c1-c1cc2nc(n1)NS(=O)(=O)c1cccc(c1)C(=O)N(Cc1cncc(N3CCC[C@@H]4CC[C@@H]43)n1)[C@H](CC1CC1)CO2 [Compound 1839]
+++ (+++ is >60+) | Cc1cccc(C)c1-c1cc2nc(n1)NS(=O)(=O)c1cccc(c1)C(=O)N(Cc1cncc(N3CCC[C@H]3C)n1)[C@H](CCC(C)(C)C)CO2 [Compound 1814]
+++ (+++ is >60+) | Cc1cccc(C)c1-c1cc2nc(n1)NS(=O)(=O)c1cccc(c1)C(=O)N(Cc1cncc(N(C)[C@@H]3CC[C@H]3C)n1)[C@H](CC(C)(C)C)CO2 (stereo in doubt) [Compound 1772]
+++ (+++ is >60+) | Cc1cccc(C)c1-c1cc2nc(n1)NS(=O)(=O)c1cccc(c1)C(=O)N(Cc1cncc(N(C)CC(C)C)n1)[C@H](COC1CC1)CO2 [Compound 1903]
+++ (+++ is >60+) | CCC(C)CN(C)c1cncc(CN2C(=O)c3cccc(c3)S(=O)(=O)Nc3nc(cc(-c4c(C)cccc4C)n3)OC[C@H]2CC(C)(C)C)n1 (stereo partly drawn) [Compound 1727]
+++ (+++ is >60+) | Cc1cccc(C)c1-c1cc2nc(n1)NS(=O)(=O)c1cccc(c1)C(=O)N(Cc1cncc(N(C)C3CCC3)n1)[C@H](CC1CCCCC1)CO2 [Compound 1804]
+++ (+++ is >60+) | Cc1cccc(C)c1-c1cc2nc(n1)NS(=O)(=O)c1cccc(c1)C(=O)N(Cc1cncc(N(C)[C@H]3C[C@@H](F)C3)n1)[C@H](COC1CC1)CO2 [Compound 1906]

Same assay, conditions: 3 μM; F508del/MF-HBE cells; with 44 nM potentiator; 18-24 hours; 20% human serum

HBE2 Activity at 3 μM (%) | SMILES
+++ (+++ is >60+) | Cc1cccc(C)c1-c1cc2nc(n1)NS(=O)(=O)c1cccc(c1)C(=O)N(Cc1cncc(N(C)CCOC(C)(C)C)n1)[C@H](CC(C)(C)C)CO2 [Compound 1650]
+++ (+++ is >60+) | Cc1cccc(C)c1-c1cc2nc(n1)NS(=O)(=O)c1cccc(c1)C(=O)N(Cc1cncc(N3CCCC3c3ccnn3C)n1)[C@H](CC(C)(C)C)CO2 (stereo partly drawn) [Compound 1606]
+++ (+++ is >60+) | Cc1cccc(C)c1-c1cc2nc(n1)NS(=O)(=O)c1cccc(c1)C(=O)N(Cc1cncc(N3CC[C@@H]4CN(C(=O)OC(C)(C)C)CC43)n1)[C@H](CC(C)(C)C)CO2 (stereo in doubt) [Compound 1649]
+++ (+++ is >60+) | Cc1cccc(C)c1-c1cc2nc(n1)NS(=O)(=O)c1cccc(c1)C(=O)N(Cc1ncc(OC(C)C)cn1)[C@H]([C@@H](C)C1CC1)CO2 (stereo in doubt) [Compound 1559]
+++ (+++ is >60+) | COCC1CC2(CCN2c2cncc(CN3C(=O)c4cccc(c4)S(=O)(=O)Nc4nc(cc(-c5c(C)cccc5C)n4)OC[C@H]3CC(C)(C)C)n2)C1 (stereo partly drawn) [Compound 1707]
+++ (+++ is >60+) | Cc1cccc(C)c1-c1cc2nc(n1)NS(=O)(=O)c1cccc(c1)C(=O)N(Cc1cncc(N3CCC4OCCC43)n1)[C@H](CC(C)(C)C)CO2 (stereo partly drawn) [Compound 1643]
+++ (+++ is >60+) | Cc1cccc(C)c1-c1cc2nc(n1)NS(=O)(=O)c1cccc(c1)C(=O)N(Cc1cncc(N3CCCCC34CCC4)n1)[C@H](CC(C)(C)C)CO2 [Compound 1626]
+++ (+++ is >60+) | Cc1cccc(C)c1-c1cc2nc(n1)NS(=O)(=O)c1cccc(c1)C(=O)N(Cc1cnc(N3CC(C)(C)C3)cn1)[C@H](CC(C)(C)C)CO2 [Compound 1654]
+++ (+++ is >60+) | Cc1cccc(C)c1-c1cc2nc(n1)NS(=O)(=O)c1cccc(c1)C(=O)N(Cc1cncc(N(C)CC3(C)COC3)n1)[C@H](CC(C)(C)C)CO2 [Compound 1613]
+++ (+++ is >60+) | CNC(=O)CC1CCCN1c1cncc(CN2C(=O)c3cccc(c3)S(=O)(=O)Nc3nc(cc(-c4c(C)cccc4C)n3)OC[C@H]2CC(C)(C)C)n1 (stereo partly drawn) [Compound 1657]
+++ (+++ is >60+) | CC(=O)N1CC2[C@@H](CCN2c2cncc(CN3C(=O)c4cccc(c4)S(=O)(=O)Nc4nc(cc(-c5c(C)cccc5C)n4)OC[C@H]3CC(C)(C)C)n2)C1 (stereo in doubt) [Compound 1663]
+++ (+++ is >60+) | Cc1cccc(C)c1-c1cc2nc(n1)NS(=O)(=O)c1cccc(c1)C(=O)N(Cc1cncc(N(C)CCOC(=O)N(C)C)n1)[C@H](CC(C)(C)C)CO2 [Compound 1667]
+++ (+++ is >60+) | CO[C@H]1C[C@@H](N(C)c2cncc(CN3C(=O)c4cccc(c4)S(=O)(=O)Nc4nc(cc(-c5c(C)cccc5C)n4)OC[C@H]3CC(C)(C)C)n2)C1 [Compound 1611]

Same assay, conditions: F508del/MF-HBE cells; with 44 nM potentiator; 18-24 hours; 20% human serum

EC50 | SMILES
< 1000 nM | Cc1cccc(C)c1-c1cc2nc(n1)NS(=O)(=O)c1cccc(c1)C(=O)N(Cc1cncc(NC3CCC3)n1)[C@H](CC(C)(C)C)CO2 [Compound 1603]

Same assay, conditions: F508del/MF-HBE cells; with 44 nM potentiator; 18-24 hours; 20% human serum; read-out: HBE2 Max activity (%)

Emax | SMILES
> 60% | Cc1cccc(C)c1-c1cc2nc(n1)NS(=O)(=O)c1cccc(c1)C(=O)N(Cc1cncc(NC3CCC3)n1)[C@H](CC(C)(C)C)CO2 [Compound 1603]

Target: T1, CFTR
Test: HBE assay: Ussing chamber assay of CFTR-mediated short-circuit currents
Format: cell-based
Conditions: Table 11; read-out: HBE EC50
How it was run: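 CFTR-mediated Isc (μA/cm²) equals the peak response to apical 20 μM forskolin minus the residual after a 20 μM each BPO/GlyH-101/CFTR inhibitor 172 cocktail, recorded in Ussing chambers at Vhold 0 mV, 37 °C, pH 7.4, with 30 μM apical amiloride. Cells were F508del/MF HBE cultures preincubated 18-24 h with corrector (concentration range or 10 μM) plus 1 μM ivacaftor in 20% human serum.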

EC50 | SMILES
< 1000 nM | COCCN(C)c1ccnc(CN2C(=O)c3cccc(c3)S(=O)(=O)Nc3nc(cc(-c4c(C)cccc4C)n3)OC[C@H]2CC(C)(C)C)c1 [Compound 887]

Same assay, conditions: Table 11; read-out: HBE Max Activity (%)

Emax | SMILES
> 60% | COCCN(C)c1ccnc(CN2C(=O)c3cccc(c3)S(=O)(=O)Nc3nc(cc(-c4c(C)cccc4C)n3)OC[C@H]2CC(C)(C)C)c1 [Compound 887]
